Experimental data as given in patent US10253039B2, “Inhibitors of bacterial DNA gyrase with efficacy against gram-negative bacteria” (priority 2014, dated 2019).
Converted amounts (≈) assume the structure as drawn. Like-named read-outs stand apart in the source and are kept apart here.

What was measured:
Type in all cases: cell-based
[1] = system: E. coli BW25113; assay: MIC, microdilution in 96-well plates; details: Escherichia coli, read-out: MIC
Procedure, shortened: (§1)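 Broth microdilution per CLSI guidance: each strain was diluted 1:10000 from a growing subculture into Luria-Bertani medium, and compound was serially diluted 2-fold in triplicate alongside a DMSO column. Plates were shaken at 37° C. for 16-18 hours; MIC is the lowest concentration showing no visible turbidity.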

[2] = system: Edwardsiella tarda; assay: MIC, microdilution in 96-well plates
Procedure, shortened: as §1

[3] = system: E. coli JW5503 (deltolC); assay: MIC, 20-strain panel; details: Escherichia coli
Procedure, shortened: as §1

[4] = system: E. coli MG1655; assay: MIC, 20-strain panel; details: Escherichia coli, read-out: MIC
Procedure, shortened: as §1

[5] = system: Klebsiella pneumoniae subsp. pneumoniae; assay: MIC, 20-strain panel
Procedure, shortened: as §1

[6] = system: Salmonella enterica subsp. enterica typhimurium; assay: MIC, 20-strain panel
Procedure, shortened: as §1

[7] = system: Shigella flexneri; assay: MIC, 20-strain panel
Procedure, shortened: as §1

[8] = system: Staphylococcus aureus subsp. aureus; assay: MIC, 20-strain panel; details: read-out: MIC
Procedure, shortened: as §1

[9] = system: Staphylococcus epidermidis; assay: MIC, 20-strain panel
Procedure, shortened: as §1

[10] = system: Staphylococcus saprophyticus subsp. saprophyticus; assay: MIC, 20-strain panel
Procedure, shortened: as §1

[11] = system: Streptococcus agalactiae; assay: MIC, 20-strain panel
Procedure, shortened: as §1

[12] = system: Streptococcus pyogenes; assay: MIC, 20-strain panel
Procedure, shortened: as §1

[13] = E: Klebsiella pneumoniae subsp. pneumoniae
[14] = F: Salmonella enterica subsp. enterica Typhimurium
[15] = H: Staphylococcus aureus subsp. aureus
[16] = Klebsiella pneumoniae subsp. pneumoniae
[17] = Salmonella enterica subsp. enterica Typhimurium
[18] = Staphylococcus aureus subsp. aureus

Compound | MIC ([1]; BW25113, B: E. coli BW25113) [µg/mL] | MIC ([2]; D: Edwardsiella tarda) [µg/mL] | MIC ([3]; C: E. coli JW5503 (deltolC)) [µg/mL] | MIC ([4]; MG1655, A: E. coli MG1655) [µg/mL] | MIC [5, 13] [µg/mL] | MIC [6, 14] [µg/mL] | MIC ([7]; G: Shigella flexneri) [µg/mL] | MIC [8, 15] [µg/mL] | MIC [9] [µg/mL] | MIC [10] [µg/mL] | MIC [11] [µg/mL] | MIC [12] [µg/mL] | MIC ([1]; BW25113, E. coli BW25113) [µg/mL] | MIC [2] [µg/mL] | MIC ([3]; E. coli JW5503 (deltolC)) [µg/mL] | MIC ([4]; MG1655, E. coli MG1655) [µg/mL] | MIC [5, 16] [µg/mL] | MIC [6, 17] [µg/mL] | MIC [7] [µg/mL] | MIC [8, 18] [µg/mL]
Cc1c(S(=O)(=O)N[C@@H]2CCN(Cc3ccc(-c4ccccc4)cc3)C2)sc2ccc(Cl)cc12 [Compound 82] | > 8 | > 8 | > 8 | > 8 | > 8 | > 8 | > 8 | > 8 | > 8 | > 8 | > 8 | > 8 |  |  |  |  |  |  |  | 
CC(C)Oc1ccc(CN2CC[C@@H](NS(=O)(=O)c3cc(Cl)cc(C(F)(F)F)c3)C2)cc1 [Compound 92] | > 8 | > 8 | 8 (≈ 16.8 µM) | > 8 | > 8 | > 8 | > 8 | > 8 | > 8 | > 8 | > 8 | > 8 |  |  |  |  |  |  |  | 
O=S(=O)(N[C@@H]1CCN(Cc2ccc(-c3ccccn3)cc2)C1)c1cccc(OC(F)(F)F)c1 [Compound 48] | > 8 | > 8 | 1 (≈ 2.09 µM) | > 8 | > 8 | > 8 | > 8 | > 8 | > 8 | > 8 | > 8 | > 8 |  |  |  |  |  |  |  | 
N#Cc1cccc(S(=O)(=O)N[C@@H]2CCN(Cc3ccc(-c4ccncc4)cc3)C2)c1 [Compound 67] | > 8 | > 8 | 4 (≈ 9.56 µM) | > 8 | > 8 | > 8 | > 8 | > 8 | > 8 | > 8 | > 8 | > 8 |  |  |  |  |  |  |  | 
Cc1ccc(S(=O)(=O)N[C@@H]2CCN(Cc3ccc(OC4CC4)cc3)C2)cc1C#N [Compound 162] |  |  |  |  |  |  |  |  | > 8 | > 8 | > 8 | > 8 | > 8 | > 8 | > 8 | > 8 | > 8 | > 8 | > 8 | > 8
O=S(=O)(N[C@@H]1CCN(Cc2ccc(-c3ccncc3)cc2)C1)c1cccc(C(F)(F)F)c1 [Compound 14] | > 8 | > 8 | 2 (≈ 4.33 µM) | > 8 | > 8 | > 8 | > 8 | > 8 | > 8 | > 8 | > 8 | > 8 |  |  |  |  |  |  |  | 
O=S(=O)(N[C@@H]1CCN(Cc2ccc3c(c2)OCCO3)C1)c1cccc(OC(F)(F)F)c1 [Compound 62] | > 8 | > 8 | 8 (≈ 17.4 µM) | > 8 | > 8 | > 8 | > 8 | > 8 | > 8 | > 8 | > 8 | > 8 |  |  |  |  |  |  |  | 
O=S(=O)(N[C@@H]1CCN(Cc2ccc(-c3cncnc3)cc2)C1)c1cccc(C(F)(F)F)c1 [Compound 58] | > 8 | > 8 | 8 (≈ 17.3 µM) | > 8 | > 8 | > 8 | > 8 | > 8 | > 8 | > 8 | > 8 | > 8 |  |  |  |  |  |  |  | 
COc1cc(CN2CC[C@@H](NS(=O)(=O)c3cccc(C#N)c3)C2)ccc1OC(C)C [Compound 155] |  |  |  |  |  |  |  |  | > 8 | > 8 | > 8 | > 8 | > 8 | > 8 | > 8 | > 8 | > 8 | > 8 | > 8 | > 8
O=S(=O)(N[C@@H]1CCN(Cc2ccc(OC3CC3)cc2)C1)c1cccnc1 [Compound 104] | > 8 | > 8 | > 8 | > 8 | > 8 | > 8 | > 8 | > 8 | > 8 | > 8 | > 8 | > 8 |  |  |  |  |  |  |  | 
O=S(=O)(N[C@@H]1CCN(Cc2ccc(OC3CCOCC3)cc2)C1)c1cccc(OC(F)(F)F)c1 [Compound 39] | > 8 | > 8 | 1 (≈ 2 µM) | > 8 | > 8 | > 8 | > 8 | > 8 | > 8 | > 8 | > 8 | > 8 |  |  |  |  |  |  |  | 
CSc1ccc(CN2CC[C@@H](NS(=O)(=O)c3cccc(OC(F)(F)F)c3)C2)cc1 [Compound 176] |  |  |  |  |  |  |  |  | > 8 | > 8 | > 8 | > 8 | > 8 | > 8 | 8 (≈ 17.9 µM) | > 8 | > 8 | > 8 | > 8 | > 8
CC(C)(C)Oc1ccc(CN2CC[C@@H](NS(=O)(=O)c3cccc(OC(F)(F)F)c3)C2)cc1 [Compound 26] | > 8 | > 8 | 0.5 (≈ 1.06 µM) | > 8 | > 8 | > 8 | > 8 | > 8 | > 8 | > 8 | > 8 | > 8 |  |  |  |  |  |  |  | 
O=S(=O)(N[C@@H]1CCN(Cc2ccc(-c3ccccc3Cl)cc2)C1)c1cccc(OC(F)(F)F)c1 [Compound 75] | > 8 | > 8 | ~8 (≈ 15.7 µM) | > 8 | > 8 | > 8 | > 8 | > 8 | > 8 | > 8 | > 8 | ~8 (≈ 15.7 µM) |  |  |  |  |  |  |  | 
O=S(=O)(N[C@@H]1CCN(Cc2ccc(-c3ccccc3)cc2)C1)c1cccc(C(F)(F)F)c1 [Compound 27] | > 8 | > 8 | 0.5 (≈ 1.09 µM) | > 8 | > 8 | 4 (≈ 8.69 µM) | > 8 | > 8 | 8 (≈ 17.4 µM) | > 8 | > 8 | 8 (≈ 17.4 µM) |  |  |  |  |  |  |  | 
CC(C)Oc1ccc(CN2CC[C@@H](NS(=O)(=O)c3cccc(C(F)(F)F)c3)C2)cc1 [Compound 18] | > 8 | > 8 | 0.5 (≈ 1.13 µM) | > 8 | > 8 | 8 (≈ 18.1 µM) | > 8 | > 8 | > 8 | > 8 | > 8 | > 8 |  |  |  |  |  |  |  | 
Cc1nn(C)c2ncc(S(=O)(=O)N[C@@H]3CCN(Cc4ccc(-c5ccccc5)cc4)C3)cc12 [Compound 115] | > 8 | > 8 | > 8 | > 8 | > 8 | > 8 | > 8 | > 8 | > 8 | > 8 | > 8 | > 8 |  |  |  |  |  |  |  | 
Cc1ccc(S(=O)(=O)N[C@@H]2CCN(Cc3ccc(-c4ccccc4)cc3)C2)cc1C#N [Compound 131] |  |  |  |  |  |  |  |  | > 8 | > 8 | > 8 | > 8 | > 8 | > 8 | 8 (≈ 18.5 µM) | > 8 | > 8 | > 8 | > 8 | > 8
O=S(=O)(N[C@@H]1CCN(Cc2ccc(-c3ccccc3)cc2)C1)c1cnccc1Cl [Compound 122] | > 8 | > 8 | 4 (≈ 9.35 µM) | > 8 | > 8 | > 8 | > 8 | > 8 | ~8 (≈ 18.7 µM) | > 8 | > 8 | > 8 |  |  |  |  |  |  |  | 
CSc1ccc(CN2CC[C@@H](NS(=O)(=O)c3cccc(C#N)c3)C2)cc1 [Compound 31] | > 8 | > 8 | ~8 (≈ 20.6 µM) | > 8 | > 8 | > 8 | > 8 | > 8 | > 8 | > 8 | > 8 | > 8 |  |  |  |  |  |  |  | 
COc1cc(CN2CC[C@@H](NS(=O)(=O)c3cccc(OC(F)(F)F)c3)C2)ccc1OC(C)C [Compound 88] | > 8 | > 8 | > 8 | > 8 | > 8 | > 8 | > 8 | > 8 | > 8 | > 8 | > 8 | > 8 |  |  |  |  |  |  |  | 
O=S(=O)(N[C@@H]1CCN(Cc2ccc(OC3CCCC3)cc2)C1)c1cccc(OC(F)(F)F)c1 [Compound 45] | > 8 | > 8 | 2 (≈ 4.13 µM) | > 8 | > 8 | > 8 | > 8 | > 8 | 8 (≈ 16.5 µM) | > 8 | > 8 | > 8 |  |  |  |  |  |  |  | 
